Test results taken from patent publication US20010014671A1, “Treatment of osteoarthritis by administering poly-N-acetyl-D-glucosamine” (Lescarden, Inc., priority 1996, published 2001).
Blank lines part the entries; values can stand above or below the compound they belong to.

What was measured:
[1] = Serum NAG and glucosamine levels after oral ingestion of NAG or poly-NAG in healthy subjects (crossover, HPLC analysis); format: in vivo, human
Source text: Ten normal, healthy subjects (five men and five women ages 36-50) were randomly divided into two groups (designated as A and B). On Day-1 a fasting blood sample was collected from each patient. Following this, group A orally ingested 1.0 gram of NAG and group B ingested 1.0 gram of poly-NAG. On Day-2 the subjects again ingested one gram of the appropriate test substance before breakfast. On the third day a fasting blood sample was taken at time T=0. Subsequently, they consumed the final 1.0 gram of the appropriate test substance, and nonfasting blood samples were taken at 1, 2, 4, and 8 hours. Fasting blood samples were taken at 24 and 48 hours thereafter. […] On Day-8, after a fasting blood sampling, the groups were switched (i.e., group A took poly-NAG while group B consumed NAG) and the same procedure as shown above was repeated.
The data were analyzed using analytical HPLC procedure based on published methods for amino sugar analysis. The chromatographic system consisted of a Hewlett-Packard 1090M Liquid Chromatograph/Work Station equipped with a Diode Array Detector. Separation was by isocratic elution at 40° C. from a 300×7.8 mm Rezex Organic Acid Column (Phenomenex; N>75000 P/m) with 0.005N H2SO4 at a flow rate of 0.6 ml/min. The analytical conditions had been developed for resolution of the aminosugar/acetylated aminosugar components of physiological fluids, and the diode array detector was optimized at 193 nm for maximum sensitivity and minimum interference. The system was calibrated with standards before, during and after the study to assure there were no significant changes due to wear and tear or aging of the system. The chromatographic data were transferred to a spreadsheet and statistically tested with ANOVA (Single Factor, Two-Factor without Replication, Two-Factor with Replication) and paired T-tests.

[2] = human trials, cited from earlier work
[3] = cited from earlier work

subjects showing decreased serum NAG levels ([1]; 24 hours following cessation of ingestion, both groups together (4/20)): 20%
concentration of NAG in serum, Avg ([1]; Pre (pretest fasting sample before ingestion), 1.0 g per day oral): 10.3 nanomoles per ml of serum
subjects with increased serum NAG concentrations ([1]; T=0 compared with pretest values, fraction of 20 subject-periods): 6/20
subjects showing an increase in serum NAG ([1]; T=1 hour compared with pretest value, fraction of 20 subject-periods): 8/20
concentration at 0 h ([1]; both sexes, human, serum, T0, third day fasting, before final 1.0 g oral dose): 15.4 µM
concentration at 1 h ([1]; both sexes, human, serum, T1, 1 hour after final 1.0 g oral dose, nonfasting): 18.2 µM
concentration at 2 h ([1]; both sexes, human, serum, T2, 2 hours after final 1.0 g oral dose, nonfasting): 21 µM
concentration at 4 h ([1]; both sexes, human, serum, T4, 4 hours after final 1.0 g oral dose, nonfasting): 22.9 µM
concentration at 8 h ([1]; both sexes, human, serum, T8, 8 hours after final 1.0 g oral dose, nonfasting): 14.6 µM
concentration at 24 h ([1]; both sexes, human, serum, T24, 24 hours after final 1.0 g oral dose, fasting): 13.6 µM
concentration at 48 h ([1]; both sexes, human, serum, T48, 48 hours after final 1.0 g oral dose, fasting): 12.7 µM
SMILES: CC(=O)N[C@H]1C(O)O[C@H](CO)[C@@H](O)[C@@H]1O (stereo partly drawn) [NAG, N-acetyl-D-glucosamine]

SMILES: N[C@H]1C(O)O[C@H](CO)[C@@H](O)[C@@H]1O.O=S(=O)(O)O (stereo partly shown) [glucosamine sulfate]
effect on symptoms of osteoarthritis ([2]; pain, joint tenderness, swelling and mobility): significant improvement in the symptoms of pain, joint tenderness, swelling and mobility
adverse side effects or undesirable drug interactions [2]: not to have any adverse side effects or undesirable interactions with other drugs

SMILES: N[C@H]1C(O)O[C@H](CO)[C@@H](O)[C@@H]1O (stereo partly shown) [glucosamine]
excreted in the feces ([3]; dog, in vivo): 1.7%
time of peak protein incorporation of glucosamine ([3]; incorporation into alpha and beta globulins): 8 h
excreted in urine ([3]; mainly as glucosamine): 34%
